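Cells were grown in 96-well plates and exposed to each compound for 48 hours at five concentrations; endpoints were interpolated linearly between bracketing concentrations, or set to the highest concentration if not reached. At the GI50, growth is halved. Definition used: TGI = concentration required for complete inhibition of growth.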
Tests used:
Assay in all cases: NCI tumour cell line growth inhibition, 48 h
HCC-2998 colon = tested on: HCC-2998 colon
SF-268 CNS = tested on: SF-268 CNS
ACHN renal = tested on: ACHN renal
SR leukemia = tested on: SR leukemia
RXF 393 renal = tested on: RXF 393 renal
NCI-H460 lung = tested on: NCI-H460 lung
HOP-62 NSCLC = tested on: HOP-62 NSCLC
CAKI-1 renal = tested on: CAKI-1 renal
A549 NSCLC = tested on: A549 NSCLC
SK-MEL-28 melanoma = tested on: SK-MEL-28 melanoma

Compound `CCN(CC)/C(SCc1ccccc1)=C(\C(Cl)=C(Cl)Cl)[N+](=O)[O-]` has a TGI (HCC-2998 colon) of 47.7 µM, a TGI (SF-268 CNS) of 46.6 µM and a TGI (ACHN renal) of 29.8 µM. It also gave a TGI (SR leukemia) of 73.6 µM, a TGI (RXF 393 renal) of 26.6 µM and a TGI (NCI-H460 lung) of 55.1 µM. The TGI (HOP-62 NSCLC) was 45.6 µM, the TGI (CAKI-1 renal) was 73.5 µM and the TGI (A549 NSCLC) was 38.1 µM. It also gave a TGI (SK-MEL-28 melanoma) of 33.9 µM.
With `COc1cc(OC)cc(-c2cc(=O)c3c(OC)c(OC)c(OC)c(OC)c3o2)c1` the TGI (HCC-2998 colon) was > 100 µM, the TGI (SF-268 CNS) was > 100 µM and the TGI (ACHN renal) was > 100 µM. For the same compound, the TGI (SR leukemia) was > 100 µM, the TGI (RXF 393 renal) was 84.8 µM and the TGI (NCI-H460 lung) was > 100 µM. For the same compound, the TGI (HOP-62 NSCLC) was > 100 µM, the TGI (CAKI-1 renal) was > 100 µM and the TGI (A549 NSCLC) was > 100 µM. The TGI (SK-MEL-28 melanoma) was > 100 µM.
In the case of `CC(=O)/C(=C\c1cccc([N+](=O)[O-])c1)C(=O)Nc1ccccc1C`, the TGI (HCC-2998 colon) is reported as > 100 µM, the TGI (SF-268 CNS) is reported as > 100 µM and the TGI (ACHN renal) is reported as > 100 µM. For the same compound, the TGI (SR leukemia) was > 100 µM, the TGI (RXF 393 renal) was > 100 µM and the TGI (NCI-H460 lung) was > 100 µM. For the same compound, the TGI (HOP-62 NSCLC) was > 100 µM, the TGI (CAKI-1 renal) was > 100 µM and the TGI (A549 NSCLC) was > 100 µM. The TGI (SK-MEL-28 melanoma) was > 100 µM.
`CCN(CC)c1ccc(-c2cc(-c3cc(OC)c(OC)c(OC)c3)nc(N3CCOCC3)c2C#N)cc1` gave a GI50 (HCC-2998 colon) of 1.97 µM, a TGI (HCC-2998 colon) of 11.1 µM and a GI50 (SF-268 CNS) of 5.96 µM. For the same compound, the TGI (SF-268 CNS) was > 100 µM, the GI50 (ACHN renal) was 1.22 µM and the TGI (ACHN renal) was > 100 µM. For the same compound, the GI50 (SR leukemia) was 0.163 µM, the TGI (SR leukemia) was 0.672 µM and the GI50 (RXF 393 renal) was 1.01 µM. For the same compound, the TGI (RXF 393 renal) was 21 µM, the GI50 (NCI-H460 lung) was 0.412 µM and the TGI (NCI-H460 lung) was 5.73 µM. For the same compound, the GI50 (HOP-62 NSCLC) was 2.24 µM, the TGI (HOP-62 NSCLC) was 16.5 µM and the GI50 (CAKI-1 renal) was 0.366 µM. The TGI (CAKI-1 renal) was > 53.2 µM, the GI50 (A549 NSCLC) was 1.37 µM and the TGI (A549 NSCLC) was > 100 µM. The GI50 (SK-MEL-28 melanoma) was 4.78 µM and the TGI (SK-MEL-28 melanoma) was > 63.5 µM.
In the case of `CC(=O)OC1=CC(n2cc(F)c(=O)[nH]c2=O)OC(C)C1=O` (stereo unspecified), the TGI (HCC-2998 colon) is reported as > 97.2 µM, the TGI (SF-268 CNS) is reported as > 100 µM and the TGI (ACHN renal) is reported as > 100 µM. The TGI (SR leukemia) was > 100 µM, the TGI (RXF 393 renal) was > 100 µM and the TGI (NCI-H460 lung) was > 100 µM. The TGI (HOP-62 NSCLC) was > 100 µM, the TGI (CAKI-1 renal) was > 100 µM and the TGI (A549 NSCLC) was > 63.1 µM. The TGI (SK-MEL-28 melanoma) was > 100 µM.
In the case of `Cc1cc(O)c(/C=N/C(=S)NCc2ccccc2)c(=O)o1`, the TGI (HCC-2998 colon) is reported as > 100 µM, the TGI (SF-268 CNS) is reported as > 100 µM and the TGI (ACHN renal) is reported as > 100 µM. For the same compound, the TGI (SR leukemia) was > 100 µM, the TGI (RXF 393 renal) was > 100 µM and the TGI (NCI-H460 lung) was > 100 µM. The TGI (HOP-62 NSCLC) was > 100 µM, the TGI (CAKI-1 renal) was > 100 µM and the TGI (A549 NSCLC) was > 100 µM. The TGI (SK-MEL-28 melanoma) was > 100 µM.
For `[Cl-].[La+3].[O-]/N=C(\c1ccccc1)c1ccccn1.[O-]/N=C(\c1ccccc1)c1ccccn1.[O-]/N=C(\c1ccccc1)c1ccccn1`, the GI50 (HCC-2998 colon) was > 100 µM, the TGI (HCC-2998 colon) was > 100 µM and the GI50 (SF-268 CNS) was 46 µM. The TGI (SF-268 CNS) was > 100 µM, the GI50 (SR leukemia) was 36.5 µM and the TGI (SR leukemia) was > 100 µM. The GI50 (RXF 393 renal) was 29.8 µM, the TGI (RXF 393 renal) was > 90.4 µM and the GI50 (NCI-H460 lung) was 15 µM. The TGI (NCI-H460 lung) was > 69.2 µM, the GI50 (HOP-62 NSCLC) was 28.4 µM and the TGI (HOP-62 NSCLC) was > 93.9 µM. For the same compound, the GI50 (CAKI-1 renal) was 48.4 µM, the TGI (CAKI-1 renal) was > 91.2 µM and the GI50 (A549 NSCLC) was 41.8 µM. For the same compound, the TGI (A549 NSCLC) was > 100 µM, the GI50 (SK-MEL-28 melanoma) was 38.5 µM and the TGI (SK-MEL-28 melanoma) was > 100 µM.
Work on `Nc1ncnc2c1nnn2C1OC(CO)C(O)C1O` (stereo unspecified) yielded a TGI (HCC-2998 colon) of 5.32 µM, a TGI (SF-268 CNS) of 18.8 µM and a GI50 (ACHN renal) of 0.141 µM. The TGI (ACHN renal) was 8.84 µM, the GI50 (SR leukemia) was 0.049 µM and the TGI (SR leukemia) was > 12.7 µM. It also gave a GI50 (RXF 393 renal) of 0.271 µM, a TGI (RXF 393 renal) of 1.51 µM and a TGI (NCI-H460 lung) of 5.64 µM. It also gave a TGI (HOP-62 NSCLC) of 5.78 µM, a TGI (CAKI-1 renal) of 2.88 µM and a TGI (A549 NSCLC) of 19.2 µM. For the same compound, the TGI (SK-MEL-28 melanoma) was 14.9 µM.

Reference: PubChem BioAssay (NCI)
